In patent US10961258B2, “Heterocyclic amides as kinase inhibitors” (GLAXOSMITHKLINE INTELLECTUAL PROPERTY DEVELOPMENT LIMITED, priority 2015, dated 2021):

What was measured:
[1] = target: T1, GST-RipK1(1-375) (Homo sapiens, UniProt Q13546); assay: Fluorescent polarization based binding assay at the ATP binding pocket of RIP1; details: FP competition with fluorescently labeled ATP competitive ligand 5 nM; GST-RipK1(1-375) 10 nM; mean of minimum 2 experiments
T1 construct: GST-RipK1 Preparation: His.GST.TEV.RIPK1 1-375; His (N); TEV cleavage site (N); made in house; host or cells: Spodoptera frugiperda (Sf9) insect cells, baculovirus
T1 sequence (Q13546 1-375): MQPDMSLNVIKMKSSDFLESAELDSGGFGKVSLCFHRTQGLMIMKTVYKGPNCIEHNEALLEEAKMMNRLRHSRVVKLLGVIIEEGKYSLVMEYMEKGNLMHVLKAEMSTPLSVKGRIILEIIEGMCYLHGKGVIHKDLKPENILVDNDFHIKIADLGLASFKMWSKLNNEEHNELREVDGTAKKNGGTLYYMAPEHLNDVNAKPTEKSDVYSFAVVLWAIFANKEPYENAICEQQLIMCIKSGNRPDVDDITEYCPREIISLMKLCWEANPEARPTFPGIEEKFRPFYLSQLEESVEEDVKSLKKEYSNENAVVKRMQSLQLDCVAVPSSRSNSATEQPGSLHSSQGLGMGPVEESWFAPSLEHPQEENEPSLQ
Procedure: A fluorescent polarization based binding assay was developed to quantitate
interaction of novel test compounds at the ATP binding pocket of RIP 1, by competition with a fluorescently labeled ATP competitive ligand. GST-RipK1(1-375) was purified from a Baculovirus expression system and was used at a final assay concentration of 10 nM. A fluorescent labeled ligand (14-(2-{[3-({2-{[4-(cyanomethyl)phenyl]amino}-6-[(5-20 cyclopropyl-1H-pyrazol-3-yl)amino]-4-pyrimidinyl}amino)propyl]amino}-2-oxoethyl)16,16,18,18-tetramethyl-6,7,7a,8a,9,10,16,18-octahydrobenzo[2″,3″ ]indolizino[8″,7″:5′,6′]pyrano[3′,2′:3,4]pyrido[1,2-a]indol-5-ium-2-sulfonate (prepared as described in WO2014125444, the disclosure of which is incorporated by reference herein) was used at a final assay concentration of 5 nM. Both the enzyme and ligand were prepared in solutions in 50 mM HEPES pH7.5, 10 mM 25 NaCl, 50 mM MgCl2, 0.5 mM DTT, and 0.02% CHAPS. Test compounds were prepared in neat DMSO and 100 nL was dispensed to individual wells of a multiwell plate. Next, 5 ul GST-RipK1(1-375) was added to the test compounds at twice the final assay concentration, and incubated at room temperature for 10 minutes. Following the incubation, 5 ul of the fluorescent labeled ligand solution, was added to each reaction, at twice the final assay concentration, and incubated at room temperature for at least 15 minutes. Finally, samples were read on an instrument capable of measuring fluorescent polarization. Test compound inhibition was expressed as percent (%) inhibition of internal assay controls. For concentration response experiments, normalized data were fit and pIC50s determined using conventional techniques. The pIC50s are averaged to determine a mean value, for a minimum of 2 experiments.
The RIPK 1 gene [receptor (TNFRSF)-interacting serine-threonine kinase 1] was cloned from human adrenal gland cDNA. Primers were designed from the reference sequence NM_003804.3 with an added CACC Kozak directional tag for cloning into pENTR/TEV/D-TOPO. Gateway® LR cloning was used to site-specifically recombine RIPK1 downstream to an N-terminal HisGST contained within the destination vector pDEST8-His.GST according to the protocol described by Invitrogen.

[2] = tested on: human monocytic leukemia U937 cells; assay: U937 necroptosis assay (TNFα + QVD, Cell Titer-Glo viability); type: cell-based; details: U-937, QVD 50 uM, TNFα 100 ng/ml overnight, cellular ATP by Cell Titer-Glo
Procedure: The efficacy of RIP1 inhibitors can be tested […] in vitro using a human monocytic leukemia U937 cells in a necroptosis assay (He, S. et al. 2009. Cell 137(6): 1100-1111). Cells were maintained in RPMI supplemented with 10% fetal bovine serum 100 U/ml penicillin, 100 ug/ml streptomycin. For the assay, cells were suspended at 5e5 cells/ml in phenol red free RPMI supplemented with 1% fetal bovine serum, 100 U/ml penicillin, 100 ug/ml streptomycin. Thirty-five (35) ul of the cell suspension was aliquotted into a white, half area assay plate. Five (5) ul each of QVD (final concentration 50 uM) or compound was added to the cells and incubated at 37° C. for 30 min to 1 h. Following the incubation, 5 ul TNFα (final concentration 100 ng/ml) was added to the cells and the samples were incubated overnight. The next day, cellular levels of ATP was determined using the Cell Titer-Glo Luminescent Cell Viability kit (available from Promega Corporation, Madison, Wis., USA). Viability was measured by quantitating cellular levels of ATP using the Cell Titer-Glo kit. All data are shown as means±standard deviation of the mean.

| Structure (SMILES) | IC50 [1] | IC50 [2] |
| --- | --- | --- |
| Cc1sc(C)c2c1CCC(NC(=O)c1nnc(Cc3ccccc3)[nH]1)C(=O)N2 (stereo not shown) [Example 1, 5-Benzyl-N-(6,8-dimethyl-2-oxo-2,3,4,5-tetra hydro-1H-thieno[3,4-b]azepin-3-yl)-4H-1,2,4-triazole-3-carboxamide] | 100 nM | 398 nM |
| O=C(NC1CCc2sccc2NC1=O)c1nnc(Cc2ccccc2)[nH]1 (stereo not shown) [Example 2, 5-Benzyl-N-(5-oxo-5,6,7,8-tetrahydro-4H-thieno[3,2-b]azepin-6-yl)-4H-1,2,4-triazole-3-carboxamide] | 251 nM | 794 nM |
| Cc1cc2c(s1)CCC(NC(=O)c1nnc(Cc3ccccc3)[nH]1)C(=O)N2 (stereo not shown) [Example 3, 5-Benzyl-N-(2-methyl-5-oxo-5,6,7,8-tetrahydro-4H-thieno[3,2-b]azepin-6-yl)-4H-1,2,4-triazole-3-carboxamide] | 79.4 nM | 631 nM |
| Cn1ccc2c1CCC(NC(=O)c1nnc(Cc3ccccc3)[nH]1)C(=O)N2 (stereo not shown) [Example 4, 5-Benzyl-N-(1-methyl-5-oxo-1,4,5,6,7,8-hexahydropyrrolo[3,2-b]azepin-6-yl)-4H-1,2,4-triazole-3-carboxamide] | 794 nM | 1260 nM |
| Cc1cn(C)c2c1NC(=O)C(NC(=O)c1nnc(Cc3ccccc3)[nH]1)CC2 (stereo not shown) [Example 5, 5-Benzyl-N-(1,3-dimethyl-5-oxo-1,4,5,6,7,8-hexahydropyrrolo[3,2-b]azepin-6-yl)-4H-1,2,4-triazole-3-carboxamide] | 631 nM | > 10000 nM |
| O=C(NC1CCc2[nH]c3ccccc3c2NC1=O)c1nnc(Cc2ccccc2)[nH]1 (stereo not shown) [Example 6, 5-Benzyl-N-(2-oxo-1,2,3,4,5,6-hexahydroazepino[3,2-b]indol-3-yl)-4H-1,2,4-triazole-3-carboxamide] | 39.8 nM | 251 nM |
| Cc1nsc2c1N(C)C(=O)[C@@H](NC(=O)c1nnc(Cc3ccccc3)[nH]1)CN2 [Example 7, (S)-5-Benzyl-N-(3,4-dimethyl-5-oxo-5,6,7,8-tetrahydro-4H-isothiazolo[4,5-b][1,4]diazepin-6-yl)-4H-1,2,4-triazole-3-carboxamide] | 20 nM | 15.8 nM |
| O=C(N[C@H]1CSc2cccn2NC1=O)c1nnc(Cc2ccccc2)[nH]1 [Example 8, (R)-5-Benzyl-N-(4-oxo-2,3,4,5-tetrahydropyrrolo[2,1-b][1,3,4]thiadiazepin-3-yl)-4H-1,2,4-triazole-3-carboxamide] | 25.1 nM | 79.4 nM |
| CN1C(=O)[C@@H](NC(=O)c2nnc(Cc3ccccc3)[nH]2)CSc2cccn21 [Example 9, (R)-5-Benzyl-N-(5-methyl-4-oxo-2,3,4,5-tetrahydropyrrolo[2,1-b][1,3,4]thiadiazepin-3-yl)-4H-1,2,4-triazole-3-carboxamide] | 10 nM | 5.01 nM |
| O=C(NC1CCc2oc3c(c2NC1=O)CCCC3)c1nnc(Cc2ccccc2)[nH]1 (stereo not shown) [Example 10, 5-benzyl-N-(2-oxo-2,3,4,5,7,8,9,10-octahydro-1H-benzofuro[3,2-b]azepin-3-yl)-4H-1,2,4-triazole-3-carboxamide] | 794 nM | – |
